From article PMC10229121, “An acetylation-mediated chromatin switch governs H3K4 methylation read-write capability” (eLife, 2023)
“Also recorded” adds a separate entry of the source.

System: H3K4 methylation and H3 acetylation in MCF-7 breast cancer cells
Experiment: Middle-down mass spectrometry of histone H3 from MCF-7 cells ± KDAC inhibition (H3K4 methylation and H3 acetylation)
Type: cell-based
Conditions: for 0ac state, percent of total H3 / 1ac state, percent of total H3 / 2ac state, percent of total H3 / 3ac state, percent of total H3 / 4ac state, percent of total H3 / 5ac state, percent of total H3: MCF-7, 5 mM butyrate 1H; for percent H3K4me3: sheet percentsk4me3
Method: MCF-7 breast cancer cells (ATCC HTB-22) were grown in MEM (Gibco) supplemented with 10% fetal bovine serum (VWR), 100 I.U. penicillin, 100 µg/mL streptomycin (Corning), 0.01 mg/mL human recombinant insulin (Gibco), and 5 µg/mL plasmocin (Invivogen) at 37 °C and 5% CO2. HEK-293 (ATCC CRL-1573) was grown in DMEM (Gibco) supplemented with 10% fetal bovine serum (Corning), 100 I.U. penicillin, and 100 µg/mL streptomycin (Gibco) at 37 °C and 5% CO2. Both cell lines were authenticated via STR profiling and confirmed to be Mycoplasma negative.
For mass spectrometric (MS) analysis ± KDAC inhibition, cells were cultured in 150 mm dishes to ~80% confluence and treated with 5 mM sodium butyrate (or equivalent volume of water) in triplicate for 0, 10, 20, 30, 60, 120 min. […] Histones were acid extracted after nuclei isolation as described ([Holt et al., 2021]). Isolated histones were resuspended in 85 µL 5% acetonitrile, 0.2% trifluoroacetic acid (TFA), and resolved by offline high-performance liquid chromatography (HPLC) as described ([Holt et al., 2021]). […] After chromatographic separation and fraction collection, histone H3.1 was selected, diluted in 100 mM ammonium acetate (pH = 4), and digested with Glu-C protease (Roche) at 10:1 protein:enzyme for 1 hr at room temperature prior to mass spectrometric analysis.
The digested samples were diluted to 2 µg/µL. Online HPLC was performed on a U3000 RSLC nano Pro-flow system using a C3 column (Zorbax 300 SB-C3, 5 µm; Agilent). Samples were maintained at 4 °C and 1 µL injected for each analysis using a microliter pickup. […] The column eluant was introduced into an Orbitrap Fusion Lumos mass spectrometer (Thermo Fisher) by nano-electrospray ionization. A static spray voltage of 1900 V and an ion transfer tube temperature of 320 °C were set for the source.
A Fusion Lumos mass spectrometer was used to generate MS data. The 9th charge state of histone H3 was targeted for analysis. MS1 analysis was acquired in the orbitrap with a normal mass range and a 60 k resolution setting in positive ion mode. An Automatic Gain Control (AGC) target of 5.0E5 with a 200 ms maximum injection time, three microscans, and a scan range of 585–640 m/z was used to identify desired ions for fragmentation. MS2 acquisition was performed in both orbitrap and ion trap modes. Both modes used electron transfer dissociation (ETD), a reaction time of 18ms, and an injection time of 200 ms. A normal scan range was used for the orbitrap mode with a resolution setting of 30 k and an AGC target of 5.0E5, with two micro scans. A narrow scan range of 470–530 m/z, targeting ions indicative of K4 modification states, was used for the ion trap mode MS2 with an ACG target of 3.0E4, quadrupole isolation, maximum injection time of 100ms, and eight microscans.
These MS methods were used with two technical replicates per biological replicate (n=3). An MS ion trap mode with a targeted mass list was used to increase sensitivity to identify known low-abundance K4me3-containing proteoforms. The ion trap MS2 spectra were averaged for each H3 acetyl state based on known retention times, and the intensities of ions indicative of the K4 methylation states were manually recorded. Retention times for each acetyl state were approximated as 0ac 35–40 min, 1ac 45–55 min, 2ac 55–60 min, 3ac 62–68 min, 4ac 69–73 min, and 5ac 74–78 min. Precursor mass was used as an additional confirmation and filter of the correct acetyl state. For scans yielding low signal and high noise (i.e. 5ac at 0 min butyrate treatment), data were manually curated before averaging. Within acetyl states, the relative proportion of fragment ions for unmodified, mono-, di-, and tri-methylation of the H3K4 ion at respective m/z of 474, 488, 502, and 516 were recorded per MS run. Values were averaged across replicates of the same conditions and normalized to one hundred percent. A two-tailed t-test was used for significance. […]

With `CCCC(=O)O` [sodium butyrate] the “0ac state, percent of total H3” value (AVG n=3) was 38.12%, the “1ac state, percent of total H3” value (AVG n=3) was 25.98% and the “2ac state, percent of total H3” value (AVG n=3) was 20.63%. The “3ac state, percent of total H3” value (AVG n=3) was 12.03%, the “4ac state, percent of total H3” value (AVG n=3) was 2.14% and the “5ac state, percent of total H3” value (AVG n=3) was 1.10%. For the same compound, the “0ac state, percent of total H3” value (normalized, replicate 1) was 53.59%, the “1ac state, percent of total H3” value (normalized, replicate 1) was 15.56% and the “2ac state, percent of total H3” value (normalized, replicate 1) was 13.01%. For the same compound, the “3ac state, percent of total H3” value (normalized, replicate 1) was 15.85%, the “4ac state, percent of total H3” value (normalized, replicate 1) was 1.53% and the “5ac state, percent of total H3” value (normalized, replicate 1) was 0.47%. For the same compound, the “0ac state, percent of total H3” value (normalized, replicate 2) was 28.79%, the “1ac state, percent of total H3” value (normalized, replicate 2) was 37.29% and the “2ac state, percent of total H3” value (normalized, replicate 2) was 21.30%. The “3ac state, percent of total H3” value (normalized, replicate 2) was 8.21%, the “4ac state, percent of total H3” value (normalized, replicate 2) was 3.37% and the “5ac state, percent of total H3” value (normalized, replicate 2) was 1.05%. For the same compound, the “0ac state, percent of total H3” value (normalized, replicate 3) was 31.98%, the “1ac state, percent of total H3” value (normalized, replicate 3) was 25.08% and the “2ac state, percent of total H3” value (normalized, replicate 3) was 27.59%. For the same compound, the “3ac state, percent of total H3” value (normalized, replicate 3) was 12.04%, the “4ac state, percent of total H3” value (normalized, replicate 3) was 1.54% and the “5ac state, percent of total H3” value (normalized, replicate 3) was 1.77%. The “percent H3K4me3” value (MCF-7, 5 mM butyrate 10M, 0ac, AVG n=3) was 1.08%, the “percent H3K4me3” value (MCF-7, 5 mM butyrate 10M, 1ac, AVG n=3) was 0.40% and the “percent H3K4me3” value (MCF-7, 5 mM butyrate 10M, 2ac, AVG n=3) was 1.95%. For the same compound, the “percent H3K4me3” value (MCF-7, 5 mM butyrate 10M, 3ac, AVG n=3) was 2.18%, the “percent H3K4me3” value (MCF-7, 5 mM butyrate 10M, 4ac, AVG n=3) was 1.30% and the “percent H3K4me3” value (MCF-7, 5 mM butyrate 10M, 5ac, AVG n=3) was 0.42%. The “percent H3K4me3” value (MCF-7, 5 mM butyrate 30M, 0ac, AVG n=3) was 1.93%, the “percent H3K4me3” value (MCF-7, 5 mM butyrate 30M, 1ac, AVG n=3) was 1.29% and the “percent H3K4me3” value (MCF-7, 5 mM butyrate 30M, 2ac, AVG n=3) was 1.93%. For the same compound, the “percent H3K4me3” value (MCF-7, 5 mM butyrate 30M, 3ac, AVG n=3) was 1.64%, the “percent H3K4me3” value (MCF-7, 5 mM butyrate 30M, 4ac, AVG n=3) was 2.14% and the “percent H3K4me3” value (MCF-7, 5 mM butyrate 30M, 5ac, AVG n=3) was 4.20%. For the same compound, the “percent H3K4me3” value (MCF-7, 5 mM butyrate 60M, 1ac, AVG n=3) was 1.27%, the “percent H3K4me3” value (MCF-7, 5 mM butyrate 60M, 2ac, AVG n=3) was 1.44% and the “percent H3K4me3” value (MCF-7, 5 mM butyrate 60M, 3ac, AVG n=3) was 1.39%. The “percent H3K4me3” value (MCF-7, 5 mM butyrate 120M, 0ac, AVG n=3) was 1.23%, the “percent H3K4me3” value (MCF-7, 5 mM butyrate 120M, 1ac, AVG n=3) was 1.92% and the “percent H3K4me3” value (MCF-7, 5 mM butyrate 120M, 2ac, AVG n=3) was 2.41%. The “percent H3K4me3” value (MCF-7, 5 mM butyrate 120M, 3ac, AVG n=3) was 1.99%, the “percent H3K4me3” value (MCF-7, 5 mM butyrate 120M, 4ac, AVG n=3) was 4.58% and the “percent H3K4me3” value (MCF-7, 5 mM butyrate 120M, 5ac, AVG n=3) was 21.35%. The “H3K4 methylation, in words” value (MCF-7, 5 mM sodium butyrate) was “increase in all H3K4 methyl states relative to the unmodified state concomitant with increasing states of H3 acetylation; also recorded: H3K4me3 levels most dramatically increased in tandem with the 5ac H3 state; also recorded: H3K4 methylation increased for the most highly acetylated proteoforms” and the “H3 poly-acetylation, in words” value (MCF-7, 5 mM sodium butyrate) was “H3 poly-acetylation rapidly increased”.
